Data on six compounds can be found in ChEMBL document CHEMBL5154938, “A Small-Molecule Oral Agonist of the Human Glucagon-like Peptide-1 Receptor” (J Med Chem, 2022).

Molecules are shown by their SMILES. The source made the active and inactive calls. The calls are words filed in the database; no cut-off is given here.

Data set [1] has as its target T1, Glucagon-like peptide 1 receptor (Homo sapiens, UniProt P43220). Put plainly: Agonist activity at human GLP-1R expressed in CHO-K1 cells assessed as cAMP accumulation by measuring maximum efficacy at 20 uM incubated for 30 mins in presence of BETP by BETP sensitized time-resolved fluorescence assay relative to control. The format is functional, cell-based. The conditions noted are these: filed as agonist. In general terms: Changes in cAMP serve as a functional read-out for many G protein-coupled receptors.

The target in data set [2] is T1, Glucagon-like peptide 1 receptor. The data set can be described thus: Agonist activity at human GLP-1R expressed in PathHunter CHO-K1 GLP1R beta-arrestin-2 cell assessed as induction of beta-arrestin 2 recruitment incubated for 90 mins in presence of BETP by PathHunter assay. The format is functional, cell-based. On the technique in general: Activated receptors often draw arrestin, which recruitment assays turn into a signal.

For data set [3] the target is unchanged. The data set can be described thus: Agonist activity at human GLP-1R expressed in PathHunter CHO-K1 GLP1R beta-arrestin-2 cells assessed as induction of beta-arrestin 2 recruitment by measuring maximum efficacy incubated for 90 mins in presence of BETP by PathHunter assay relative to control. The data set is classed as functional, cell-based.
A short description of data set [4]: Lipophilicity, logD of compound at pH 7.4 by shake-flash method. The format is physicochemical. The conditions noted are these: buffer.
The target of data set [5] is Voltage-gated inwardly rectifying potassium channel KCNH2 (Homo sapiens, UniProt Q12809). The data set can be described thus: Inhibition of hERG ion channel by patch-clamp method. The format is toxicity.
Sequence of Voltage-gated inwardly rectifying potassium channel KCNH2 (Q12809 whole entry): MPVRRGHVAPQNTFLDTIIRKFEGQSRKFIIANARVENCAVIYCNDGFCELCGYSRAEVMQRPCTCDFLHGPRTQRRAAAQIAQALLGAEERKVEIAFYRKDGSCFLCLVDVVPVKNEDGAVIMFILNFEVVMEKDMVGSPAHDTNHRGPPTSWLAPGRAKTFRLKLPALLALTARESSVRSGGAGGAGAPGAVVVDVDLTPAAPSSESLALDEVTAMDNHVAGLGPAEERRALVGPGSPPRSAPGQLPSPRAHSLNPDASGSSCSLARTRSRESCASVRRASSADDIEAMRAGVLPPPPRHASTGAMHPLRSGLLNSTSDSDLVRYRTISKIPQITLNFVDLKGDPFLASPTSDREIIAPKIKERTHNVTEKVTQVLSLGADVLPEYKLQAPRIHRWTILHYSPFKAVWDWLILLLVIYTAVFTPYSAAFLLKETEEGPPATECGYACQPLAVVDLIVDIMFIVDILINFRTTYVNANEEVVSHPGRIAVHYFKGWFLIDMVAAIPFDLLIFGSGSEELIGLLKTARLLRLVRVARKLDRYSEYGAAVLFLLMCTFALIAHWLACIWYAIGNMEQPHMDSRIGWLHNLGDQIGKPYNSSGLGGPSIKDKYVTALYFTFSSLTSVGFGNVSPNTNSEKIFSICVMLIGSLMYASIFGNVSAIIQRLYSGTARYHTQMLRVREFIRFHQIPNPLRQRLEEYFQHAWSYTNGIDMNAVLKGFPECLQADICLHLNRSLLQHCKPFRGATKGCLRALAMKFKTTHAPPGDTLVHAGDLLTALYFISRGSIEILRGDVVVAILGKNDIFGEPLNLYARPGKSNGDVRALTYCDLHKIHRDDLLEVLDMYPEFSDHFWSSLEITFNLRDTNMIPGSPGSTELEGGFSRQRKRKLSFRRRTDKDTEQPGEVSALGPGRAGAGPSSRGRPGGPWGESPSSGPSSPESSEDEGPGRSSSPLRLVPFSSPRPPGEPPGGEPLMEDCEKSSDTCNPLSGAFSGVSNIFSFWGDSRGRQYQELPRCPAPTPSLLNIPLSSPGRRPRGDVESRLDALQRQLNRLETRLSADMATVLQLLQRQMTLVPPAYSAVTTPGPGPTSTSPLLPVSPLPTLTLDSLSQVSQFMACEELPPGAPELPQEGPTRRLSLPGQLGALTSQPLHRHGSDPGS
In data set [6] the target is T1, Glucagon-like peptide 1 receptor.
For data set [7] the target is unchanged. The source holds these as a separate data set.
The target is the same in data set [8]. This is another data set of the same source.
The target is the same in data set [9]. The source holds these as a separate data set.
Another data set in a line: in vitro. The note with it: human, hepatocytes.
A short description of data set [10]: Lipophilicity, logD of compound at pH 7.4 by RP-HPLC analysis. The conditions noted are these: buffer. The format is physicochemical.
The nature of data set [11]: Cmax in Wistar Han rat at 100 mg/kg, po measured upto 24 hrs by LC-MS/MS analysis. Also on record: time < 24 hrs, dose 100 mg/kg, route po. The format is ADME, organism-based. The note with it: in vivo.
Data set [12] can be described thus: Metabolic stability in human liver microsomes assessed as intrinsic clearance in the presence of NADPH by HPLC-MS/MS analysis. The data set is classed as ADME, Microsome. A general note: Microsomes from liver hold many membrane-bound enzymes, among them those of drug oxidation.
The nature of data set [13]: Activation of rabbit GLP-1R expressed in CHO cells assessed as increase in cAMP accumulation. The conditions noted are these: Oryctolagus cuniculus. The format is cell-based.
A short description of data set [14]: Cmax in Wistar Han rat at 5 mg/kg, po measured upto 24 hrs by LC-MS/MS analysis. The format is ADME, organism-based. Also on record: dose 5 mg/kg, time < 24 hrs, route po. The conditions noted are these: in vivo.
Another data set deals with CHO. The data set can be described thus: Activation of mouse GLP-1R S33W mutant expressed in CHO cells assessed as increase in cAMP accumulation. The format is cell-based. The conditions noted are these: filed as activator.
A short description of data set [15]: Cmax in cynomologus monkey at 5 mg/kg, po measured upto 24 hrs by LC-MS/MS analysis. The data set is classed as ADME, organism-based, Macaca fascicularis. Also on record: time < 24 hrs, dose 5 mg/kg, route po. The note with it: cynomolgus monkey, in vivo.
Data set [16] in a line: Cmax in cynomologus monkey at 100 mg/kg, po measured upto 24 hrs by LC-MS/MS analysis. The format is ADME, organism-based, Macaca fascicularis. The note with it: cynomolgus monkey, in vivo. Also on record: time < 24 hrs, dose 100 mg/kg, route po.
Data set [17] is described as follows: AUC(0 to infinity) in cynomologus monkey at 1 mg/kg, iv measured upto 24 hrs by LC-MS/MS analysis. The data set is classed as ADME, organism-based, Macaca fascicularis. Also on record: dose 1 mg/kg, time < 24 hrs, route iv. The conditions noted are these: cynomolgus monkey, in vivo.
Data set [18] can be described thus: AUC(0 to infinity) in cynomologus monkey at 5 mg/kg, po measured upto 24 hrs by LC-MS/MS analysis. The format is ADME, organism-based, Macaca fascicularis. Also on record: time < 24 hrs, dose 5 mg/kg, route po. The note with it: cynomolgus monkey, in vivo.
Data set [19] is described as follows: AUC(0 to infinity) in cynomologus monkey at 100 mg/kg, po measured upto 24 hrs by LC-MS/MS analysis. The data set is classed as ADME, organism-based, Macaca fascicularis. Also on record: dose 100 mg/kg, time < 24 hrs, route po. The note with it: cynomolgus monkey, in vivo.
Data set [20] can be described thus: AUC (0 to infinity) in Wistar Han rat at 1 mg/kg, iv measured upto 24 hrs by LC-MS/MS analysis. The data set is classed as ADME, organism-based. Also on record: time < 24 hrs, dose 1 mg/kg, route iv. The note with it: in vivo.
Data set [21] in a line: AUC (0 to infinity) in Wistar Han rat at 5 mg/kg, po measured upto 24 hrs by LC-MS/MS analysis. The format is ADME, organism-based. Also on record: dose 5 mg/kg, time < 24 hrs, route po. The note with it: in vivo.
The nature of data set [22]: AUC (0 to infinity) in Wistar Han rat at 100 mg/kg, po measured upto 24 hrs by LC-MS/MS analysis. The data set is classed as ADME, organism-based. Also on record: dose 100 mg/kg, time < 24 hrs, route po. The note with it: in vivo.
A short description of data set [23]: Volume of distribution at steady state in Wistar Han rat at 1 mg/kg, iv measured upto 24 hrs by LC-MS/MS analysis. The format is ADME, organism-based. The conditions noted are these: in vivo.
Data set [24] in a line: Volume of distribution at steady state in cynomologus monkey at 1 mg/kg, iv measured upto 24 hrs by LC-MS/MS analysis. The format is ADME, organism-based, Macaca fascicularis. The note with it: cynomolgus monkey, in vivo.
A short description of data set [25]: Oral bioavailability in cynomologus monkey at 5 mg/kg measured upto 24 hrs by LC-MS/MS analysis. The data set is classed as ADME, organism-based, Macaca fascicularis. The conditions noted are these: cynomolgus monkey, in vivo.
Data set [26] is described as follows: Oral bioavailability in cynomologus monkey at 100 mg/kg measured upto 24 hrs by LC-MS/MS analysis. The format is ADME, organism-based, Macaca fascicularis. The conditions noted are these: cynomolgus monkey, in vivo.
Data set [27] is described as follows: Oral bioavailability in Wistar Han rat at 5 mg/kg measured upto 24 hrs by LC-MS/MS analysis. The data set is classed as ADME, organism-based. The note with it: in vivo.
The nature of data set [28]: Oral bioavailability in Wistar Han rat at 100 mg/kg measured upto 24 hrs by LC-MS/MS analysis. The format is ADME, organism-based. The conditions noted are these: in vivo.
In data set [29] the test system is Macaca fascicularis. Put plainly: Induction of insulin secretion in cynomologus monkey assessed as induction of glucose-induced insulin secretion at 1.8 mg, iv dosed once daily by IVGTT. The data set is classed as functional, organism-based. The conditions noted are these: DDE = dose-dependent effect.
In data set [30] the test system is Macaca fascicularis. Put plainly: Induction of insulin secretion in cynomologus monkey assessed as glucose disappearance at 1.8 mg, iv dosed once daily by IVGTT assay. The data set is classed as functional, organism-based.
The next data set relates to Cynomolgus monkey. The data set can be described thus: Reduction in food intake in cynomologus monkey at 2.9 mg/kg, po administered once daily for 2 days relative to control. The data set is classed as functional, organism-based. The note with it: Macaca fascicularis, time 2.0 day.
Data set [31] deals with T1, Glucagon-like peptide 1 receptor. Put plainly: Agonist activity at FAP-tagged human GLP-1R expressed in HEK293 cells assessed as receptor internalization measured after 30 mins by nuclear staining based confocal microscopic analysis. The format is functional, cell-based. The note with it: filed as agonist.
Data set [32] shares this target. This is another data set of the same source.
The target is the same in data set [33]. The source holds these as a separate data set.
Data set [34] shares this target. The data set can be described thus: biochemical.

T1 sequence (P43220 whole entry): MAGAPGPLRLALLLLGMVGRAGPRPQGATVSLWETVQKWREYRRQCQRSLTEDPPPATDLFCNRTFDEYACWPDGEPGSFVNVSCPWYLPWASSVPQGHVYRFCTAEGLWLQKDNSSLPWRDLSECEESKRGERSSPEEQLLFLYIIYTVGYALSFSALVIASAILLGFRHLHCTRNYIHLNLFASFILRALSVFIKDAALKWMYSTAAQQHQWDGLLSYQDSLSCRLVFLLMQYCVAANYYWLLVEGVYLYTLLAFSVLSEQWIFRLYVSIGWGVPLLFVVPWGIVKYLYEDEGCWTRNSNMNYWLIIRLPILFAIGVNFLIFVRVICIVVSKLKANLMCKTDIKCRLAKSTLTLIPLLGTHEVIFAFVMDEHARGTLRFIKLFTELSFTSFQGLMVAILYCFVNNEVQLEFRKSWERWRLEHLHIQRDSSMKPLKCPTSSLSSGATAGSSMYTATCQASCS

As to `Cn1c(CN2CCC(c3cccc(OCc4ccc(Cl)cc4F)n3)CC2)nc2ccc(C(=O)O)nc21`, the Emax in data set [1] is 84%; in data set [3] (filed as agonist) it was 99%. Also, the EC50 was 2.8 µM in [2]; 0.0067 µM in data set [6]; 0.095 µM in data set [7]; 2.1 µM in [8]; more than 30 µM in [9]. Besides, in data set [4], the logD turned out to be 2. In addition, in [5], the 50% inhibitory concentration (IC50) was more than 100 µM. For the same compound, the hepatocyte CLint in the data set “in vitro” stood at 31 µL/min/1e6 cells.

For the compound `Cn1c(CN2CCC(c3cccc(OCc4ccc(Cl)cc4F)n3)CC2)nc2ccncc21`, the Emax in data set [1] was determined as 86%; in [3] (filed as agonist), 100%. Also, the EC50 was 9.6 µM in data set [2]; 0.077 µM in data set [6]; 2.6 µM in [7]; more than 20 µM in [8]; more than 30 µM in data set [9]. Also, the logD in data set [10] worked out at 5.7. Besides, in data set [5], the IC50 is 5.6 µM. Further, the hepatocyte CLint in the data set “in vitro” was found to be 55 µL/min/1e6 cells.

For the compound `N#Cc1ccc(COc2cccc(C3CCN(Cc4nc5ccc(C(=O)O)cc5n4C[C@@H]4CCO4)CC3)n2)c(F)c1` [DANUGLIPRON], the Cmax came out at 2820 ng/mL in data set [11], 141 ng/mL in data set [14], 68.7 ng/mL in data set [15] and 1150 ng/mL in data set [16]. Also, the Emax in data set [1] worked out at 110%. This compound also displayed a logD in data set [4] of 1.8. In addition, in data set [12], the CLH was less than 10 µL/min. Moreover, the IC50 in data set [5] is 4.3 µM. The EC50 in [13] was more than 20 µM. Besides, the result (in the data set with CHO; with Macaca fascicularis [30]; in the data set on Cynomolgus monkey; in data set [31]) was Active. Besides, the AUC in data set [17] is 1240 ng·h/mL; in data set [18] it was 303 ng·h/mL; in data set [19], 11000 ng·h/mL; in data set [20], 296 ng·h/mL; in [21], 168 ng·h/mL; in data set [22], 11900 ng·h/mL. The volume of distribution (Vdss) was 0.86 L/kg in data set [23] and 0.266 L/kg in data set [24]. The bioavailability in data set [25] came to 5%; in [26], 9%; in data set [27] it was 11%; in data set [28] it was 39%. The Activity result with Macaca fascicularis [29] is “Dde”. Further, the hepatocyte CLint in “in vitro” amounted to 6.9 µL/min/1e6 cells.

On to `Cn1c(CN2CCC(c3nc(OCc4ccc(Cl)cc4F)ncc3F)CC2)nc2ccccc21`, for which the log distribution coefficient (logD) in data set [10] was determined as 5.6. This compound gave an IC50 in [5] of 5.4 µM. The EC50 is more than 9.9 µM in data set [6], more than 20 µM in data set [7] and more than 20 µM in [8]. This compound also had a hepatocyte CLint in “in vitro” of 48 µL/min/1e6 cells.

Consider `Cn1c(CN2CCC(c3cccc(OCc4ccc(Cl)cc4F)n3)CC2)nc2nccc(NCC(=O)O)c21`, for which the Emax in [1] is 90%; in [3] it was 23%. The EC50 in data set [2] is 1.5 µM; in data set [6], 0.044 µM; in [7], 4.6 µM; in data set [8], more than 20 µM; in data set [9], more than 30 µM. Besides, the logD in data set [4] is 2.3. In data set [5], this compound yielded an IC50 of more than 10 µM. Besides, the hepatocyte CLint in “in vitro” is 37 µL/min/1e6 cells.

With `CCn1cncc1Cn1c(CN2CCC(c3cccc(OCc4ccc(F)cc4F)n3)CC2)nc2ccc(C(=O)O)cc21`, the EC50 is 0.00075 µM in data set [7], 0.0086 µM in [8], 0.25 µM in [32] and 0.61 µM in data set [33]. In data set [34], this compound gave a Ki of 0.051 µM.

For orientation: Emax means the size of the effect at its maximum, as opposed to the concentration needed. The EC50 is the concentration that produces a half-maximal response. For orientation: logD means the decadic logarithm of the distribution of all forms, ionised or not, between an organic phase and buffer at a given pH. In general, IC50 refers to the point on the concentration scale where inhibition reaches its midpoint. Broadly, the hepatocyte CLint is a measure of how fast metabolising enzymes remove a compound, apart from limits set by blood flow. As usually defined, the Cmax is the highest concentration seen after dosing. As usually defined, the AUC is the area under the concentration-time curve, a measure of exposure. For orientation: Vdss means a proportionality between amount in the body and measured concentration, not a real space. As a reminder, the bioavailability is the share of a dose that reaches the circulation, judged against a reference dose that is usually intravenous. As a reminder, the Ki is the dissociation constant of the complex between target and ligand, obtained from inhibition or displacement.
